Patent US7749982B2, “Complex containing mequitazine, a cyclodextrin and an interaction agent” (Pierre Fabre Medicament, priority 2004, dated 2010)

What was measured:
[1] = Bioavailability of mequitazine administered by oral route; details: in vivo
Description: As for many pharmaceutically active ingredients, the absorption of mequitazine administered by oral route takes place in the intestine. […] A very small portion of the mequitazine ingested is in solubilized form, and thus it is absorbed with difficulty through the intestinal barrier.

[2] = Mequitazine solubilization test (2 g/l in water, HPLC assay); assay type: physicochemical
Method: In the sense of the present invention, “rate of solubilization” means the percentage of solubilized mequitazine after stirring a mixture of water and mequitazine for 15 minutes at 37° C. A mixture of 2 g/l of mequitazine in water is usually used to measure this rate. This solubilization can be measured by a solubilization test as indicated below.
The mequitazine content in the dissolution solutions is measured by HPLC:
In a 100 ml Erlenmeyer flask, place a test sample equivalent to 100 mg of mequitazine. Add 50 ml of ultrapure water. […] Place under magnetic stirring at 400 rpm in a water bath at 37° C.±2° C. Remove a 2 ml sample under magnetic stirring at 15 minutes. Filter the sample on a 0.45 μm Gelman GHP Acrodisc polypropylene filter. The solution must be limpid. Dilute the sample to 1/200 in a phase: water/acetonitrile (50/50).
Deduce concentration X in μg/ml by following the regression line of the controls.
Calculate the concentration in μg/ml of solubilized mequitazine by multiplying by the inverse of the dilution made (i.e., 200).
The rate of solubility of mequitazine is calculated by dividing the concentration of solubilized mequitazine by the total concentration of mequitazine in the starting solution. […]
The solubility and the rates of solubilization of mequitazine only or mequitazine in physical mixtures are measured as indicated above in the “mequitazine solubilization test”. […]

## c1ccc2c(c1)Sc1ccccc1N2CC1CN2CCC1CC2 (stereo not drawn) [mequitazine]
[1]
  bioavailability: ~0.3%
[2]; acid pH range from 2 to 6
  solubility (in words): high solubility
[2]; pH 9
  solubility (in words): very low solubility
